Measured values: the supplement of paper PMC11208160
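Further: IS621 bridge recombinase in Escherichia coli cells against a fixed T5 target plasmid.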

Experiment: recombinant UMI read abundance after kanamycin selection (control-corrected) (log10(CPM+1)); higher = more efficient recombination; extreme values may be limits of the assay; sequences stand for … in AGTGCAGAGAAAATCGGCCAGTTTTCTCTGCCTGCAGTCCGCATGCCGTGGGACCCCTTGGGTTCTAACCTGTTGCCTAGATTTATGCAGCGGACTGCCTTTCTCCCAAAGTGATAAACCGG…AGGTTGGTTTCACT; site = the 11-nt donor
Procedure, shortened: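 Each donor and donor-binding-loop pair was tracked by a 12-nt UMI on a plasmid carrying a promoterless kanamycin gene. With a second plasmid supplying a fixed target and T7-inducible IS621 bridge recombinase, the pool was plated in Escherichia coli on IPTG (0.07 mM) plus kanamycin or unselected. Sequencing of recombinant UMIs across the donor–target junction gave counts expressed as log10(CPM+1) after replicate averaging and control-derived scaling.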
With “ATCAAAGCATGGACCGGTTTTCCCGGTAATCCGTATTTGAG (site ATCAAAGCTCT)” the “recombinant UMI read abundance (log10)” value was 2.17. In the case of “ATCAAAGCATGGACCGGTTTTCCCGGTAATCCGTATTTGAG (site ATCCAAGCTCT)”, the “recombinant UMI read abundance (log10)” value is reported as 0.889. In the case of “ATCAAAGCATGGACCGGTTTTCCCGGTAATCCGTATTTGAG (site ATCGAAGCTCT)”, the “recombinant UMI read abundance (log10)” value is reported as 0.781. With “ATCAAAGCATGGACCGGTTTTCCCGGTAATCCGTATTTGAG (site ATCTAAGCTCT)” the “recombinant UMI read abundance (log10)” value was 0.855. For “ATCACATCATGGACCGGTTTTCCCGGTAATCCGTATTTGCG (site ATCACATCTCG)”, the “recombinant UMI read abundance (log10)” value was 2.31. With “ATCAGACCATGGACCGGTTTTCCCGGTAATCCGTATTTGCA (site ATCAGACCTTG)” the “recombinant UMI read abundance (log10)” value was 0. With “ATCAGGCCATGGACCGGTTTTCCCGGTAATCCGTATTTGAC (site ATAAGGCCTGT)” the “recombinant UMI read abundance (log10)” value was 0. In the case of “ATCAGGCCATGGACCGGTTTTCCCGGTAATCCGTATTTGAC (site ATCAGGCCTGT)”, the “recombinant UMI read abundance (log10)” value is reported as 0. With “ATCAGGCCATGGACCGGTTTTCCCGGTAATCCGTATTTGAC (site ATGAGGCCTGT)” the “recombinant UMI read abundance (log10)” value was 0. In the case of “ATCAGGCCATGGACCGGTTTTCCCGGTAATCCGTATTTGAC (site ATTAGGCCTGT)”, the “recombinant UMI read abundance (log10)” value is reported as 0. In the case of “ATCAGGCCATGGACCGGTTTTCCCGGTAATCCGTATTTGAG (site ATCAGGCCTCT)”, the “recombinant UMI read abundance (log10)” value is reported as 0. With “ATCATGCCATGGACCGGTTTTCCCGGTAATCCGTATTTGCC (site ATCATGCCTGG)” the “recombinant UMI read abundance (log10)” value was 0. In the case of “ATCATTGCATGGACCGGTTTTCCCGGTAATCCGTATTTGAC (site ATCATTGCTGT)”, the “recombinant UMI read abundance (log10)” value is reported as 1.48. In the case of “ATCATTTCATGGACCGGTTTTCCCGGTAATCCGTATTTGCA (site ATCATTTCTTG)”, the “recombinant UMI read abundance (log10)” value is reported as 1.73. With “ATCCAAGCATGGACCGGTTTTCCCGGTAATCCGTATTTGAC (site ATCCAAGCTAT)” the “recombinant UMI read abundance (log10)” value was 0.937. For “ATCCAAGCATGGACCGGTTTTCCCGGTAATCCGTATTTGAC (site ATCCAAGCTCT)”, the “recombinant UMI read abundance (log10)” value was 0.0101. With “ATCCAAGCATGGACCGGTTTTCCCGGTAATCCGTATTTGAC (site ATCCAAGCTGT)” the “recombinant UMI read abundance (log10)” value was 1.73. With “ATCCAAGCATGGACCGGTTTTCCCGGTAATCCGTATTTGAC (site ATCCAAGCTTT)” the “recombinant UMI read abundance (log10)” value was 0.767. For “ATCCAAGCATGGACCGGTTTTCCCGGTAATCCGTATTTGAG (site AACCAAGCTCT)”, the “recombinant UMI read abundance (log10)” value was 0.0115. With “ATCCAAGCATGGACCGGTTTTCCCGGTAATCCGTATTTGAG (site ACCCAAGCTCT)” the “recombinant UMI read abundance (log10)” value was 0.646. For “ATCCAAGCATGGACCGGTTTTCCCGGTAATCCGTATTTGAG (site AGCCAAGCTCT)”, the “recombinant UMI read abundance (log10)” value was 0.194. For “ATCCAAGCATGGACCGGTTTTCCCGGTAATCCGTATTTGAG (site ATACAAGCTCT)”, the “recombinant UMI read abundance (log10)” value was 0.0267. For “ATCCAAGCATGGACCGGTTTTCCCGGTAATCCGTATTTGAG (site ATCAAAGCTCT)”, the “recombinant UMI read abundance (log10)” value was 0.429. For “ATCCAAGCATGGACCGGTTTTCCCGGTAATCCGTATTTGAG (site ATCCAAACTCT)”, the “recombinant UMI read abundance (log10)” value was 1.09. With “ATCCAAGCATGGACCGGTTTTCCCGGTAATCCGTATTTGAG (site ATCCAACCTCT)” the “recombinant UMI read abundance (log10)” value was 0.00996. With “ATCCAAGCATGGACCGGTTTTCCCGGTAATCCGTATTTGAG (site ATCCAAGCTAT)” the “recombinant UMI read abundance (log10)” value was 1.64. With “ATCCAAGCATGGACCGGTTTTCCCGGTAATCCGTATTTGAG (site ATCCAAGCTCA)” the “recombinant UMI read abundance (log10)” value was 0.209. With “ATCCAAGCATGGACCGGTTTTCCCGGTAATCCGTATTTGAG (site ATCCAAGCTCC)” the “recombinant UMI read abundance (log10)” value was 0.0127. For “ATCCAAGCATGGACCGGTTTTCCCGGTAATCCGTATTTGAG (site ATCCAAGCTCG)”, the “recombinant UMI read abundance (log10)” value was 0.141. In the case of “ATCCAAGCATGGACCGGTTTTCCCGGTAATCCGTATTTGAG (site ATCCAAGCTCT)”, the “recombinant UMI read abundance (log10)” value is reported as 0.799. In the case of “ATCCAAGCATGGACCGGTTTTCCCGGTAATCCGTATTTGAG (site ATCCAAGCTGT)”, the “recombinant UMI read abundance (log10)” value is reported as 0. For “ATCCAAGCATGGACCGGTTTTCCCGGTAATCCGTATTTGAG (site ATCCAAGCTTT)”, the “recombinant UMI read abundance (log10)” value was 0.757. For “ATCCAAGCATGGACCGGTTTTCCCGGTAATCCGTATTTGAG (site ATCCAATCTCT)”, the “recombinant UMI read abundance (log10)” value was 0.773. For “ATCCAAGCATGGACCGGTTTTCCCGGTAATCCGTATTTGAG (site ATCCACGCTCT)”, the “recombinant UMI read abundance (log10)” value was 0.0466. With “ATCCAAGCATGGACCGGTTTTCCCGGTAATCCGTATTTGAG (site ATCCAGGCTCT)” the “recombinant UMI read abundance (log10)” value was 0.356. In the case of “ATCCAAGCATGGACCGGTTTTCCCGGTAATCCGTATTTGAG (site ATCCATGCTCT)”, the “recombinant UMI read abundance (log10)” value is reported as 0.0106. For “ATCCAAGCATGGACCGGTTTTCCCGGTAATCCGTATTTGAG (site ATCCCAGCTCT)”, the “recombinant UMI read abundance (log10)” value was 0.0104. For “ATCCAAGCATGGACCGGTTTTCCCGGTAATCCGTATTTGAG (site ATCCGAGCTCT)”, the “recombinant UMI read abundance (log10)” value was 0.00838.
